Laboratory results published in patent USRE30241E, “Esters of 3-(hydroxy or hydroxymethyl)-4-hydroxyphenyl aminomethyl ketones” (Sterling Drug Inc., priority 1970, dated 1980).
Where a name gives a salt, the structure may show the parent alone. Read-outs that look alike come from different tables or passages of the source. Each block holds one compound with its values, some of them ahead of it.

Key:
[1] = tested on: heart rate; test: Cardiovascular studies: effect on the heart rate in the anesthetized dog; assay type: in vivo
Description: The effect of a rapid intravenous injection on the heart rate the heart rate was conducted in anesthetized dogs under normal respiration. A few open-chest dogs were also tested. Increase in heart rate was measured by using an electrocardiograph attached to the dog. Readings were taken every 0.5-1 minute for the first 10 minutes and every 2-5 minutes thereafter until recovery. In some cases, several doses and more than one compound were tested alternately in the same dog. The blood pressure effect was simultaneously recorded.

[2] = tested on: carbachol- or histamine-induced bronchoconstriction; test: Bronchodilator Test Method I, anesthetized dog, intraduodenal activity; assay type: in vivo; details: Canis lupus familiaris, read-out: Bronchodilation; for inhibition in vivo at 0.025 mg/kg: 25 mcg/kg (salt) intraduodenal; for inhibition in vivo at 0.05 mg/kg: 50 mcg/kg (salt) intraduodenal; for inhibition in vivo at 0.005 mg/kg: 5 mcg/kg (salt) intraduodenal; for inhibition in vivo at 0.04 mg/kg: 40 mcg/kg (salt) intraduodenal; for inhibition in vivo at 0.16 mg/kg: 160 mcg/kg (salt) intraduodenal
Summary of the method: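 Pentobarbital-anesthetized (30 mg/kg i.v.) open-chest dogs of 9-18 kg, artificially ventilated; airway pressure recorded via tracheal cannula transducer. Test solution injected intraduodenally; from 5 min, i.v. carbachol (4-6 μg/kg) or histamine diphosphate (35-45 μg/kg) challenges every 30-60 min gauged degree and duration of bronchodilation.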

[3] = tested on: carbachol- or histamine-induced bronchoconstriction; test: Bronchodilator Test Method I, anesthetized dog, intravenous activity; assay type: in vivo; details: Canis lupus familiaris, read-out: Bronchodilatation; for inhibition in vivo at 0.00025 mg/kg: 0.25 mcg/kg i.v.; for inhibition in vivo at 0.001 mg/kg: 1 mcg/kg i.v.; for inhibition in vivo at 0.004 mg/kg: 4 mcg/kg i.v.; for inhibition in vivo at 0.0005 mg/kg: 0.5 mcg/kg i.v.; for inhibition in vivo at 0.006 mg/kg: 6.0 mcg/kg i.v.; for inhibition in vivo at 0.025 mg/kg: 25 mcg/kg i.v.; for inhibition in vivo at 0.1 mg/kg: 100 mcg/kg i.v.
Summary of the method: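 Pentobarbital-anesthetized (30 mg/kg i.v.), open-chest, artificially ventilated dogs were given i.v. carbachol (4-6 µg/kg) or histamine diphosphate (35-45 µg/kg). Test compound was given i.v. mixed with, after, or 1-10 min before the constrictor.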

[4] = tested on: guinea pig bronchioles constricted by carbachol; test: Bronchodilator Test Method II, in vitro perfused guinea pig lung
Description: In this method bronchodilator activity in vitro was determined by testing the effect of graded doses of the test compounds on guinea pig bronchioles constricted by carbachol, using the technique reported by Sollman and von Oettingen, Proc. Soc, Exp. Biol. Med., 25,692 (1928) as modified by Tainter, Pedden, and James, J. Pharm. Exp. Ther., 51, 371 (1934) and by Luduena, von Euler, Tullar, and Lands, Arch. intern. Pharmacol., III, 392 (1957).

[5] = Solubility and pH of salts; details: water

Structure (SMILES): CC(C)(C)NCC(O)c1ccc(O)c(CO)c1 (stereo not drawn) [Ref. Cpd. III, 3-Hydroxymethyl-4-hydroxy-alpha-(tert-butylaminomethyl)benzyl alcohol, reference compound]
Mean Maximal Increase in the Heart Rate ([1]; 0.25 mcg/kg (salt) i.v.): 9 Beats/Minute
Mean Maximal Increase in the Heart Rate ([1]; 1 mcg/kg (salt) i.v.): 15 Beats/Minute
Mean Maximal Increase in the Heart Rate ([1]; 4 mcg/kg (salt) i.v.): 34 Beats/Minute
inhibition in vivo at 0.025 mg/kg ([2]; 10 min, 10 min): 45%
inhibition in vivo at 0.05 mg/kg ([2]; 10 min, 10 min): 13%
inhibition in vivo at 0.05 mg/kg ([2]; 0.5 h, 30 min): 42%
inhibition in vivo at 0.025 mg/kg ([2]; 1 h, 60 min): 51%
inhibition in vivo at 0.05 mg/kg ([2]; 1 h, 60 min): 56%
inhibition in vivo at 0.025 mg/kg ([2]; 2 h, 120 min): 43%
inhibition in vivo at 0.05 mg/kg ([2]; 2 h, 120 min): 71%
inhibition in vivo at 0.025 mg/kg ([2]; 3 h, 180 min): 0%
inhibition in vivo at 0.05 mg/kg ([2]; 3 h, 180 min): 53%
inhibition in vivo at 0.05 mg/kg ([2]; 4 h, 240 min): 34%
inhibition in vivo at 0.05 mg/kg ([2]; 5 h, 300 min): 6%
inhibition in vivo at 0.00025 mg/kg ([3]; 5 min, 5 min): 18%
inhibition in vivo at 0.001 mg/kg ([3]; 5 min, 5 min): 31%
inhibition in vivo at 0.004 mg/kg ([3]; 5 min, 5 min): 65%
inhibition in vivo at 0.00025 mg/kg ([3]; 0.5 h, 30 min): 0%
inhibition in vivo at 0.001 mg/kg ([3]; 0.5 h, 30 min): 14%
inhibition in vivo at 0.004 mg/kg ([3]; 0.5 h, 30 min): 24%
inhibition in vivo at 0.001 mg/kg ([3]; 1 h, 60 min): 3%
inhibition in vivo at 0.004 mg/kg ([3]; 1 h, 60 min): 18%
inhibition in vivo at 0.004 mg/kg ([3]; 2 h, 120 min): 0%

Structure (SMILES): CC(C)(C)NCC(=O)c1ccc(OC(=O)C(C)(C)C)c(OC(=O)C(C)(C)C)c1.Cl [3,4-bis(pivalyloxy)phenyl tert-butylaminomethyl ketone hydrochloride]
solubility [5]: ≥ 10 mg/mL

Structure (SMILES): COc1ccc(C(=O)Oc2cc(C(O)CNC(C)(C)C)ccc2OC(C)=O)cc1 (stereo not drawn) [Example 149, 3-(p-anisoyloxy)-4-acetoxy-alpha-(tert-butylaminomethyl)benzyl alcohol methanesulfonate]
Mean Maximal Increase in the Heart Rate ([1]; 0.8 mcg/kg (salt) i.v.): 19 Beats/Minute
Mean Maximal Increase in the Heart Rate ([1]; 6.4 mcg/kg (salt) i.v.): 47 Beats/Minute
Mean Maximal Increase in the Heart Rate ([1]; 32 mcg/kg (salt) i.v.): 70 Beats/Minute
ED50 ([4]; Doryl conc. 1:10 million): 0.91 µg (base)
Duration, Mean ([4]; dose 2 mcg (base), Doryl conc. 1:10 million): 13.2 ± 1.9 min
inhibition in vivo at 0.005 mg/kg ([2]; 5 min, 5 min): 0%
inhibition in vivo at 0.04 mg/kg ([2]; 5 min, 5 min): 78%
inhibition in vivo at 0.16 mg/kg ([2]; 5 min, 5 min): 72%
inhibition in vivo at 0.005 mg/kg ([2]; 0.5 h, 30 min): 7%
inhibition in vivo at 0.04 mg/kg ([2]; 0.5 h, 30 min): 52%
inhibition in vivo at 0.16 mg/kg ([2]; 0.5 h, 30 min): 61%
inhibition in vivo at 0.005 mg/kg ([2]; 1 h, 60 min): 13%
inhibition in vivo at 0.04 mg/kg ([2]; 1 h, 60 min): 44%
inhibition in vivo at 0.16 mg/kg ([2]; 1 h, 60 min): 56%
inhibition in vivo at 0.005 mg/kg ([2]; 2 h, 120 min): 5%
inhibition in vivo at 0.04 mg/kg ([2]; 2 h, 120 min): 31%
inhibition in vivo at 0.16 mg/kg ([2]; 2 h, 120 min): 11%
inhibition in vivo at 0.005 mg/kg ([2]; 3 h, 180 min): 9%
inhibition in vivo at 0.16 mg/kg ([2]; 3 h, 180 min): 22%
inhibition in vivo at 0.005 mg/kg ([2]; 4 h, 240 min): 0%
inhibition in vivo at 0.04 mg/kg ([2]; 4 h, 240 min): 35%
inhibition in vivo at 0.16 mg/kg ([2]; 4 h, 240 min): 23%
inhibition in vivo at 0.04 mg/kg ([2]; 5 h, 300 min): 35%
inhibition in vivo at 0.0005 mg/kg ([3]; 5 min, 5 min): 54%
inhibition in vivo at 0.006 mg/kg ([3]; 5 min, 5 min): 100%
inhibition in vivo at 0.0005 mg/kg ([3]; 0.5 h, 30 min): 19%
inhibition in vivo at 0.006 mg/kg ([3]; 0.5 h, 30 min): 32%
inhibition in vivo at 0.0005 mg/kg ([3]; 1 h, 60 min): 19%
inhibition in vivo at 0.006 mg/kg ([3]; 1 h, 60 min): 24%

Structure (SMILES): Cc1cccc(C(=O)Oc2ccc(C(O)CNC(C)(C)C)cc2O)c1 (stereo not drawn) [Example 139, 3-hydroxy-4-(m-toluyloxy)-alpha-(tert-butylaminomethyl)benzyl alcohol methanesulfonate]
Mean Maximal Increase in the Heart Rate ([1]; 5 mcg/kg (salt) i.v.): 6 Beats/Minute
Mean Maximal Increase in the Heart Rate ([1]; 25 mcg/kg (salt) i.v.): 28 Beats/Minute
Mean Maximal Increase in the Heart Rate ([1]; 50 mcg/kg (salt) i.v.): 35 Beats/Minute
ED50 ([4]; carbachol (Doryl) 1:5 million): 2.64 µg (base)
Duration, Mean ([4]; dose 6 mcg (base)): 29.8 ± 4.4 min
inhibition in vivo at 0.025 mg/kg ([3]; 5 min, 5 min): 81%
inhibition in vivo at 0.1 mg/kg ([3]; 5 min, 5 min): 74%
inhibition in vivo at 0.025 mg/kg ([3]; 0.5 h, 30 min): 22%
inhibition in vivo at 0.1 mg/kg ([3]; 0.5 h, 30 min): 63%
inhibition in vivo at 0.025 mg/kg ([3]; 1 h, 60 min): 24%
inhibition in vivo at 0.1 mg/kg ([3]; 1 h, 60 min): 22%
inhibition in vivo at 0.025 mg/kg ([3]; 2 h, 120 min): 0%
inhibition in vivo at 0.1 mg/kg ([3]; 2 h, 120 min): 25%
inhibition in vivo at 0.1 mg/kg ([3]; 3 h, 180 min): 9%
inhibition in vivo at 0.1 mg/kg ([3]; 5 h, 300 min): 10%

More lines, main results first:

solubility [5]: ≥ 50 mg/mL
Structure (SMILES): CCC(C)CC(=O)Oc1ccc(C(O)CNC(C)(C)C)cc1OC(=O)CC(C)CC.Cl (stereo not drawn) [Example 6, 3,4-bis(3-methylpentanoyloxy)-alpha-(tert-butylaminomethyl)benzyl alcohol hydrochloride]
ED50 ([4]; carbachol (Doryl) 1:5 million): 1.3 µg (base)
Duration, Mean ([4]; dose 3.2 mcg (base)): 43 ± 3.7 min

solubility [5]: ≥ 50 mg/mL
Structure (SMILES): CC(C)CC(=O)Oc1cc(C(O)CNC(C)(C)C)ccc1OC(=O)C(C)(C)C.Cl (stereo not drawn) [Example 71, 3-(isovaleryloxy)-4-(pivalyloxy)-alpha-(tert-butylaminomethyl)benzylalcohol hydrochloride]
ED50 ([4]; carbachol (Doryl) 1:5 million): 0.63 µg (base)
Duration, Mean ([4]; dose 2 mcg (base)): 26 min

solubility [5]: ≥ 50 mg/mL
Structure (SMILES): Cc1ccc(C(=O)Oc2ccc(C(O)CNC(C)(C)C)cc2O)cc1 (stereo not drawn) [Example 69, 3-hydroxy-4-(p-toluyloxy)-alpha-(tert-butylaminomethyl)benzyl alcohol methanesulfonate]

solubility [5]: < 1 mg/mL
Structure (SMILES): Cc1ccc(C(=O)Oc2ccc(C(=O)CNC(C)(C)C)cc2OC(=O)c2ccc(C)cc2)cc1 [3,4-bis(p-toluyloxy)phenyl tert-butylaminomethyl ketone hydrochloride]

solubility [5]: ≥ 50 mg/mL
Structure (SMILES): CCCC(C)(C)C(=O)Oc1ccc(C(O)CNC(C)(C)C)cc1OC(=O)C(C)(C)CCC (stereo not drawn) [Example 8, 3,4-bis(2,2-dimethylpentanoyloxy)-alpha-(tert-butylaminomethyl)benzyl alcohol]
